Article PMC6265791, “Neuroprotective Activity of Some Marine Fungal Metabolites in the 6-Hydroxydopamin- and Paraquat-Induced Parkinson’s Disease Models” (Marine Drugs, 2018)
“Also recorded” adds a separate entry of the source. Where two headings read alike, the source gives them in different places.

Columns and labels:
[1] = system: ROS formation in Neuro2a cells treated with 6-OHDA; assay: ROS level analysis in 6-OHDA-treated cells; format: cell-based; details: for Reduction of ROS level in 6-OHDA-treated cells / Effect on ROS formation in 6-OHDA-treated cells: 10 µM, 6-OHDA 50 µM, 30 min
Protocol: (§1) Cell suspensions (1 × 10^3 cells/well) were incubated with compound solutions (10 µM) for 1 h. Then, 6-OHDA at a concentration of 50 µM was added in each well, and cells were incubated for 30 min. In other experiments, cells were incubated with PQ at a concentration of 500 µM for 30 min and 1 h. Cells incubated without 6-OHDA/PQ and compounds, and with 6-OHDA/PQ only, were used as positive and negative controls, respectively. To study ROS formation, 20 µL of 2,7-dichlorodihydrofluorescein diacetate solution (Molecular Probes, Eugene, OR, USA) was added to each well, such that the final concentration was […], and the microplate was incubated for an additional 10 min at 37 °C. The intensity of dichlorofluorescein fluorescence was measured with plate reader PHERAstar FS (BMG Labtech, Ortenberg, Germany) at λex = 485 nm, and λem = 518 nm. The data were processed by MARS Data Analysis v. 3.01R2 (BMG Labtech, Ortenberg, Germany). The results were presented as a percentage of positive control data.

[2] = cited from earlier work
[3] = Cell viability (cytotoxicity) assay, MTT; format: cell-based; details: mouse, Neuro2a neuroblastoma cells; Neuro2a cells, 24 h, MTT
Protocol: (§2) The neuroblastoma cell line Neuro2a was purchased from ATCC. Cells were cultured in DMEM medium containing 10% fetal bovine serum (Biolot, St. Petersburg, Russia) and 1% penicillin/streptomycin (Invitrogen, Carlsbad, CA, USA). Cells were incubated at 37 °C in a humidified atmosphere containing 5% (v/v) CO2.
(§3) Cell suspension (1 × 10^3 cells/well) was incubated with different concentration of compounds for 24 h. After that, cell viability was determined using the MTT (3-(4,5-dimethylthiazol-2-yl)-2,5- diphenyltetrazolium bromide) method, according to the manufacturer’s instructions (Sigma-Aldrich, St. Louis, MO, USA). The results were presented as percent of control data, and concentration required for 50% inhibition of cell viability (IC50) was calculated.

[4] = system: neuroblastoma Neuro2a cells; assay: Cell viability (cytotoxicity) assay, MTT; format: cell-based; details: up to 100 µM
Protocol: as §2, §3

[5] = DPPH radical scavenger assay (cell-free); details: for DPPH radicals scavenged: 100 µM
Protocol: DPPH radical scavenging activity of compounds was tested as described.
Compounds were dissolved in MeOH, and the solutions (160 µL) were dispensed into wells of a 96-well microplate. In all, 40 µL of the DPPH (Sigma-Aldrich, Steinheim, Germany) solution in MeOH (1.5 × 10^−4 M) was added to each well. Concentrations of compounds in mixture were 10 and 100 µM. The mixture was shaken and left to stand for 30 min, and the absorbance of the resulting solution was measured at 520 nm with a microplate reader MultiscanFC (ThermoScientific, Waltham, MA, USA). Radical scavenging activity of all compounds at 100 µM were presented as percent of MeOH data, and the concentration of DPPH radical scavenging at 50% (EC50) was calculated for some compounds.

[6] = system: ROS formation in Neuro2a cells treated with paraquat (PQ); assay: ROS level analysis in PQ-treated cells; format: cell-based; details: for Decrease of ROS formation in PQ-treated cells: added 1 h before PQ (500 µM, 1 h)
Protocol: as §1, with “Cell suspensions (1 × 10^3 cells/well) were incubated with compound solutions (10 µM) for 1 h.” left out

[7] = system: PC12 cells; details: pre-treating for 3 h; cited from earlier work
[8] = system: Neuro2a cells treated with 6-OHDA; assay: 6-Hydroxydopamine-induced in vitro model of Parkinson's disease, cell viability (MTT); format: cell-based; details: for Effect on 6-OHDA-treated cell viability: 10 µM; for Neuroprotective effect in 6-OHDA model at tenfold reduced concentration: 1 µM (concentration reduced tenfold)
Protocol: The neuroprotective activities of compounds in 6-hydroxydopamine-induced cell model of Parkinson’s disease were examined, as described previously.
Neuroblastoma Neuro2a line cells (1 × 10^3 cells/well) were treated with 50 µM of 6-hydroxydopamine (Sigma-Aldrich, St. Louis, MO, USA) for 1 h and, after that, the investigated compounds were added to the neuroblastoma cell suspension at a concentration of 1 and 10 µM. In the other case, the substances were added to the cells 1 h before the addition of the neurotoxin. Cells incubated without 6-OHDA and compounds, and with 6-OHDA only, were used as positive and negative controls, respectively. After 24 h, viability of cells was measured using the MTT method. The results were presented as a percent of positive control data.

[9] = system: MPTP-treated neuroblastoma cells; details: cited from earlier work
[10] = system: Neuro2a cells treated with PQ; assay: Paraquat-induced in vitro model of Parkinson's disease, cell viability (MTT); format: cell-based; details: added 1 h before PQ (500 µM)
Protocol: Neuroblastoma Neuro2a line cells (1 × 10^3 cells/well) were treated with compounds at concentrations of 1 and 10 µM for 1 h, and then 500 µM of paraquat (Sigma-Aldrich, St. Louis, MO, USA) was added to the neuroblastoma cell suspension. Cells incubated without paraquat and compounds, and with paraquat only, were used as positive and negative controls, respectively. The viability of cells was measured after 24 h using the MTT method. The results were presented as percent of positive control data.

[11] = system: HL-60 tumor cells; details: read-out: Cytotoxic activity IC50; cited from earlier work
[12] = system: P-388 tumor cells; details: read-out: Cytotoxic activity IC50; cited from earlier work
[13] = system: A-549 tumor cells; details: read-out: Cytotoxic activity IC50; cited from earlier work
[14] = system: A 549 tumor cells; details: read-out: Cytotoxic activity IC50; cited from earlier work
[15] = system: KB tumor cells; details: read-out: Cytotoxic activity IC50; cited from earlier work
[16] = system: osteoclast differentiation; details: cited from earlier work
[17] = system: Candida albicans; details: cited from earlier work
[18] = system: dopaminergic neuronal cell death in mouse PD model, nigral neurons, SH-SY5Y cells; details: cited from earlier work
[19] = system: PC12 cells; details: cited from earlier work
[20] = compound added 1 h after 6-OHDA
[21] = compound added 1 h before 6-OHDA
[22] = read-out: DPPH scavenger activity IC50

Compound: NCCc1cc(O)c(O)cc1O [6-OHDA, 6-hydroxydopamine, reference compound]
- Increase of ROS level in Neuro2a cells by the neurotoxin ([1]; 30 min after addition to the cell suspension): 30%

Compound: COc1c(-c2ccc(O)c(O)c2)cc(OC)c2c1oc1cc(O)c(O)cc12 [Candidusin B, reference compound]
- DPPH radical scavenging ([2]; 100 µg/mL): 59%

Compound: CC(=O)NCC(=O)c1c[nH]c2cc(O)ccc12 [Compound 1, 6-hydroxy-N-acetyl-β-oxotryptamine]
- Reduction of ROS level in 6-OHDA-treated cells [1]: 18%
- IC50 at 24 h [3]: > 100 µM
- Cytotoxicity against Neuro2a cells [4]: not cytotoxic; also recorded: non-cytotoxic
- DPPH radicals scavenged [5]: 48%
- Decrease of ROS formation in PQ-treated cells ([6]; 10 µM): 35%

Compound: COc1ccc2[nH]cc(CCNC(C)=O)c2c1 [Compound 1a, Melatonin, reference compound]
- Effect on ROS formation in 6-OHDA-treated cells [1]: decreased ROS formation in the 6-OHDA-treated neuronal cell stronger in comparison with 1
- Viability of PC12 cells in 6-OHDA-induced PD model [7]: increased viability of the cells, and prevented apoptosis
- Effect on 6-OHDA-treated cell viability [8, 20]: did not increase the viability
- Effect on 6-OHDA-treated cell viability [8, 21]: did not increase the viability; also recorded: ineffective
- Caspase-3 enzyme activity, DNA fragmentation factor 45 cleavage and DNA fragmentation [9]: diminished
- Decrease of ROS formation in PQ-treated cells ([6]; 10 µM): 22%

Compound: Cc1cc(O)c(C)c(O)c1C(=O)O [Compound 2, 3-methylorsellinic acid]
- Reduction of ROS level in 6-OHDA-treated cells [1]: 30%
- IC50 at 24 h [3]: > 100 µM
- Cytotoxicity against Neuro2a cells [4]: not cytotoxic; also recorded: non-cytotoxic
- Effect on 6-OHDA-treated cell viability [8, 20]: no neuroprotective effect
- DPPH radicals scavenged [5]: 10%
- Effect on viability of PQ-treated cells [10]: did not exhibit any protective effect
- Effect on ROS formation in PQ-treated cells ([6]; added 1 h before PQ (500 µM)): reduced ROS formation

Compound: COc1c(-c2ccc(O)cc2)cc(OC)c2c1oc1cc(O)c(O)cc12 [Compound 4, candidusin A]
- Effect on ROS formation in 6-OHDA-treated cells [1]: did not have any effect
- IC50 at 24 h [3]: 75.7 ± 5.6 µM
- IC50 [11]: 77.6 µM
- IC50 [12]: 46.8 µM
- Effect on 6-OHDA-treated cell viability [8, 21]: had no effect
- IC50 [13]: 19.3 µM
- DPPH radicals scavenged [5]: 32%
- Effect on viability of PQ-treated cells [10]: did not have any effect
- Decrease of ROS formation in PQ-treated cells ([6]; 10 µM): 27%

Compound: COc1c(-c2ccccc2)cc(OC)c2c1oc1cc(O)c(O)cc12 [Compound 5, 4″-dehydroxycandidusin A]
- Reduction of ROS level in 6-OHDA-treated cells [1]: 34%
- IC50 at 24 h [3]: 78.9 ± 1.9 µM
- IC50 [14]: 34 µM
- Neuroprotective effect in 6-OHDA model at tenfold reduced concentration [8]: neuroprotective effect was not preserved
- IC50 [15]: 22.7 µM
- DPPH radicals scavenged [5]: 49%
- EC50 ([5]; concentration of DPPH radical scavenging at 50%): 101 ± 2.8 µM
- Decrease of ROS formation in PQ-treated cells ([6]; 1 µM): 19%
- Decrease of ROS formation in PQ-treated cells ([6]; 10 µM): 40%

Compound: CN1C(=O)C(Cc2c(O)cccc2O)NC(=O)C1Cc1ccccc1 (stereo not drawn) [Compound 6, mactanamide]
- Reduction of ROS level in 6-OHDA-treated cells [1]: 30%
- IC50 at 24 h [3]: > 100 µM
- Cytotoxicity against Neuro2a cells [4]: not cytotoxic; also recorded: non-cytotoxic
- Influence on osteoclast differentiation [16]: influence on osteoclast differentiation without any cytotoxicity
- Neuroprotective effect in 6-OHDA model at tenfold reduced concentration [8]: neuroprotective effect was preserved
- DPPH radicals scavenged [5]: 15%
- Effect on viability of PQ-treated cells [10]: did not show any neuroprotective activity
- Decrease of ROS formation in PQ-treated cells ([6]; 1 µM): 32%
- Decrease of ROS formation in PQ-treated cells ([6]; 10 µM): 37%
- Activity against Candida albicans [17]: fungistatic activity

Compound: CN1C(=O)[C@]23CC4=CC=C[C@H](O)[C@H]4N2C(=O)[C@@]1(CO)SS3 [Gliotoxin]
- IC50 [2, 22]: 5.2 µM

Compound: C[n+]1ccc(-c2cc[n+](C)cc2)cc1 [PQ, paraquat]
- Increase of ROS levels in Neuro2a cells by the neurotoxin ([6]; 1 h after adding to the cell suspension): 39%
- Effect on ROS formation in Neuro2a cells ([6]; after 30 min): insignificant

Compound: COC(=O)[C@]12Oc3ccc(-c4ccc5c(c4O)C(=O)C4=C(O)C[C@@H](C)[C@H](O)[C@@]4(C(=O)OC)O5)c(O)c3C(=O)C1=C(O)C[C@@H](C)[C@@H]2O [Secalonic acid A]
- Protection against MPTP-induced dopaminergic neuronal cell death [18]: protected

Compound: OCc1cc(O)c(Cc2cc(O)ccc2O)c(Cl)c1O [Terrestrol G]
- IC50 ([2]; read-out: DPPH-scavenging IC50): 4.1 µM

Compound: C[C@H]1CO[C@]2(C)Oc3cc(O)c4c(c3C[C@H]12)O[C@@]1(C)OC[C@H](C)[C@H]1C4 [Xyloketal B]
- Protection of PC12 cells against ischemia-induced cell injury and MPTP-induced neurotoxicity [19]: protected
- Free radical scavenging in DPPH assay [2]: scavenged free radicals

Compound: cryptoechinulin D
- IC50 [2, 22]: 23.6 µM

Compound: neoechinulin E
- IC50 [2, 22]: 46 µM
